{"source": "patent US6706509B2", "about": "“Oncoprotein protein kinase” (The Regents of the University of California, priority 1993, dated 2004)", "key": {"[1]": {"tested_on": "N-terminal c-Jun kinase (JNK)", "assay": "Solid-phase kinase assay of N-terminal c-Jun kinase activity in HeLa cell extracts", "assay_type": "cell-based, human", "details": "HeLa S3 cells, TPA 100 ng/ml", "method": "(§1) Cell extracts were diluted so that the final composition of the WCE buffer was 20 mM HEPES pH 7.7, 75 mM NaCl, 2.5 mM MgCl2, 0.1 mM EDTA, 0.05% Triton X-100, 0.5 mM DTT, 20 mM β-glycerolphosphate, 0.1 mM Na3VO4, 2 μg/ml leupeptin, 100 μg/ml PMSF. The extracts were mixed with 10 μl of GSH-agarose suspension (Sigma) to which 10 μg of either GST or GST-Jun fusion proteins were bound. The mixture was rotated at 4° C. for 3 hours in a microfuge tube and pelleted by centrifugation at 10,000×g for 20 sec. After 4×1 ml washes in HEPES binding buffer (20 mM HEPES pH 7.7, 50 mM NaCl, 2.5 mM MgCl2, 0.1 mM EDTA, 0.05% Triton X-100), the pelleted beads were resuspended in 30 μl of kinase buffer (20 mM HEPES pH 7.6, 20 mM MgCl2, 20 mM β-glycerolphosphate, […] p-nitrophenyl phosphate, 0.1 mM Na3VO4, 2 mM DTT) containing 20 μM ATP and 5 μCi γ-^32P-ATP. After 20 minutes at 30° C. the reaction was terminated by washing with HEPES binding buffer. Phosphorylated proteins were eluted with 30 μl of 1.5×Laemlli sample buffer and resolved on a 10% SDS polyacrylamide gel, followed by autoradiography. Quantitation of phosphate incorporated was determined by gel slicing and scintillation counting. Phosphorylated GST fusion proteins were eluted from gel slices and subjected to phosphopeptide mapping as described (Boyle, et al., supra, 1991). […]"}, "[2]": {"tested_on": "N-terminal c-Jun kinase (JNK)", "assay": "Solid-phase kinase assay of N-terminal c-Jun kinase activity in Jurkat cell extracts", "assay_type": "cell-based, human", "details": "Jurkat cells, TPA 50 ng/ml, after 30 minutes", "method": "as §1"}, "JNK1": {"tested_on": "JNK1", "assay": "Epitope-tagged JNK1 protein kinase activity in transfected COS cells", "assay_type": "cell-based", "details": "10 nM EGF or 100 nM TPA", "method": "JNK1 protein kinase activity was detected in the immune-complex. Immunecomplex kinase assays using either M2 immunoprecipitates or purified JNK1, JNK-46, and ERK1 or ERK2 were performed at 30° C. for 20 mins using 3 μg of substrate, 20 μM ATP and 5 μCi of [γ-^32P]ATP in 30 μl of kinase buffer (25 mM Hepes (pH 7.6), 20 mM MgCl2, 20 mM β-glycerophosphate, 20 mM p-nitrophenyl phosphate, 0.1 mM Na orthovanadate, 2 mM DTT). The reactions were terminated with Laemmli sample buffer and the products were resolved by SDS-PAGE (12% gel). JNK1 protein activity was also measured after SDS-PAGE by the in-gel kinase assay with the substrate GST-cJun(1-79) as described by Hibi, et al., supra, (1993). Solid-phase protein kinase assays were performed as described by Hibi, et al., supra, (1993). Clarified cell extracts were incubated with GST fusion proteins immobilized on GSH-agarose beads. After 3 hours at 4° C., the beads were washed extensively and bound JNK1 was detected by the addition of [γ-^32P]ATP. The reaction was terminated after 10 mins at 30° C. and the products were resolved by SDS-PAGE. The incorporation of [^32P]phosphate was visualized by autoradiography and quantitated with a phosphorimager and ImageQuant software (Molecular Dynamics Inc., Sunnyvale, Calif.). The methods used for phosphopeptide mapping (Boyle, et al., Cell 64:573-584, 1991) and phosphoamino acid analysis (Alvarez, et al., J. Biol. Chem 266:15227-15285, 1991) were described previously.\nEpitope-tagged JNK1 was expressed in COS cells. Control experiments were performed using mock-transfected cells. After 48 hours, the cells were treated either without or with 100 nM TPA, 10 nM EGF, or 80 J/m^2 UV-C and incubated for 1 hr. The cells were lysed in RIPA buffer and the JNK1 proteins were isolated by immunoprecipitation with the M2 monoclonal antibody. JNK1 protein kinase activity was measured after SDS-PAGE using an in-gel kinase assay with the substrate GST-cJun(1-79) polymerized into the gel.\nCOS-1 cells were maintained in. Dulbecco's modified Eagle's medium supplemented with 5% […] (Gibco-BRL). Metabolic labeling with [^32P]phosphate was performed by incubation of cells in phosphate-free modified Eagle's medium (Flow Laboratories Inc.) supplemented with 0.1% fetal bovine serum and 1 mCi/ml [^32P]orthophosphate (Dupont-NEN). COS cells were treated with 10 nM EGF or 100 nM thorbol myristate acetate. The cells were then incubated for defined times at 37° C. prior to harvesting and measurement of JNK1 protein kinase activity. The data are presented as arbitrary units. […] In contrast, exposure to UV radiation caused a marked increase in JNK1 activity."}}, "data": [{"smiles": "CCCCCCCCCCCCCC(=O)O[C@@H]1[C@@H](C)[C@@]2(O)[C@@H](C=C(CO)C[C@]3(O)C(=O)C(C)=C[C@@H]23)[C@H]2C(C)(C)[C@]12OC(C)=O", "note": "[TPA]", "values": [{"measurement": "N-terminal c-Jun kinase activity, effect of treatment", "setting": "[1]", "value": "minor compared to that of UV"}, {"measurement": "N-terminal kinase activity, activation", "setting": "[2]", "value": 25, "unit": "fold"}, {"measurement": "JNK1 activation", "setting": "JNK1", "value": "low level of JNK1 activation"}, {"measurement": "duration of JNK1 activation", "setting": "JNK1", "value": "approximately 2 hours"}]}]}
